# Legend:
# [1] = system: painful stretchings induced by acetic acid; test: acetic acid induced stretching (analgesic effect); details: 100 mg/kg oral, 0.7% acetic acid i.p., mice
# Protocol: Each sample was orally administrated in the dosage of 100 mg/kg before injection of acetic acid.
# in vivo = details: mouse, po
# Protocol: Each sample was dissolved in olive oil or dispersed in 1% Tween 20 aqueous solution.
# platelet aggregation = test: blood platelet aggregation inhibition, collagen as inducer; type: cell-based; details: 10^-4 mole, rabbit PRP
# Source text: Blood platelet aggregation inhibiting effect
# Male rabbits (Japan original white strain 3.3 to 3.6 kg) were anesthetized with Thiopental sodium and blood was sampled from the carotid artery.
smiles,measurement,setting,value
CCCCc1ccc(C(=O)c2ccc(OC)cc2)cc1 [compound 18],Analgesic (percentage diminution of times of painful stretchings),[1],20.1%
same,LD50 at 72 h,in vivo,2000 mg/kg
same,Blood platelet agg. inh. (percentage inhibition of platelet aggregation),platelet aggregation,9.3%
CCCCCc1ccc(C(=O)c2ccccc2)cc1 [compound 23],Analgesic (percentage diminution of times of painful stretchings),[1],10.1%
same,LD50 at 72 h,in vivo,5000 mg/kg
same,Blood platelet agg. inh. (percentage inhibition of platelet aggregation),platelet aggregation,13.8%
CCCCCCc1ccc(C(=O)c2ccccc2)cc1 [compound 24],Analgesic (percentage diminution of times of painful stretchings),[1],47.7%
same,LD50 at 72 h,in vivo,6000 mg/kg
same,Blood platelet agg. inh. (percentage inhibition of platelet aggregation),platelet aggregation,10.5%
CCCCCCc1ccc(C(=O)c2ccc(C)cc2)cc1 [compound 36],LD50 at 72 h,in vivo,> 10000 mg/kg
same,Blood platelet agg. inh. (percentage inhibition of platelet aggregation),platelet aggregation,15.1%
CCCCc1ccc(C(=O)Cc2ccccc2)cc1 [compound 39],LD50 at 72 h,in vivo,> 10000 mg/kg
same,Blood platelet agg. inh. (percentage inhibition of platelet aggregation),platelet aggregation,2.6%
Cc1ccc(C(=O)Cc2ccccc2)cc1 [compound 48],Blood platelet agg. inh. (percentage inhibition of platelet aggregation),platelet aggregation,20.5%
CCCCCCCCCCc1ccc(C(=O)Cc2ccccc2)cc1 [compound 50],LD50 at 72 h,in vivo,> 10000 mg/kg
same,Blood platelet agg. inh. (percentage inhibition of platelet aggregation),platelet aggregation,8.7%
CCCCCCCCCCCc1ccc(C(=O)Cc2ccccc2)cc1 [compound 51],Blood platelet agg. inh. (percentage inhibition of platelet aggregation),platelet aggregation,9.5%
CCCCCCCCCCCCc1ccc(C(=O)Cc2ccccc2)cc1 [compound 52],Blood platelet agg. inh. (percentage inhibition of platelet aggregation),platelet aggregation,6.8%
CCc1ccc(C(=O)C(=O)c2ccccc2)cc1 [compound 55],Blood platelet agg. inh. (percentage inhibition of platelet aggregation),platelet aggregation,23.3%
CCCOc1ccc(C(=O)Cc2ccccc2)cc1 [compound 58],Blood platelet agg. inh. (percentage inhibition of platelet aggregation),platelet aggregation,20.1%
CCCCCOc1ccc(C(=O)Cc2ccccc2)cc1 [compound 59],Blood platelet agg. inh. (percentage inhibition of platelet aggregation),platelet aggregation,25.6%
COc1ccc(C(=O)Cc2ccc(Cl)cc2)cc1 [compound 60],Blood platelet agg. inh. (percentage inhibition of platelet aggregation),platelet aggregation,4.0%
Cc1ccc(C(=O)c2ccccc2)cc1 [compound 65],Blood platelet agg. inh. (percentage inhibition of platelet aggregation),platelet aggregation,21.0%
CCCCCCCCCCc1ccc(C(=O)c2ccccc2)cc1 [compound 68],Blood platelet agg. inh. (percentage inhibition of platelet aggregation),platelet aggregation,16.5%
CCCCCCCCCCCCc1ccc(C(=O)c2ccccc2)cc1 [compound 69],Blood platelet agg. inh. (percentage inhibition of platelet aggregation),platelet aggregation,13.5%
CCCCCCCCCCCc1ccc(C(=O)c2ccccc2)cc1 [compound 71],Blood platelet agg. inh. (percentage inhibition of platelet aggregation),platelet aggregation,19.5%
CCCCc1ccc(CCCC)c(C(=O)c2ccccc2)c1 [compound 77],Blood platelet agg. inh. (percentage inhibition of platelet aggregation),platelet aggregation,25.1%
Cc1cc(C)c(C)c(C(=O)c2ccccc2)c1C [compound 78],Blood platelet agg. inh. (percentage inhibition of platelet aggregation),platelet aggregation,19.9%
CCc1ccc(CC)c(C(=O)c2ccccc2)c1 [compound 80],Blood platelet agg. inh. (percentage inhibition of platelet aggregation),platelet aggregation,30.3%
CCOc1ccc(C(=O)c2ccccc2)cc1 [compound 81],Blood platelet agg. inh. (percentage inhibition of platelet aggregation),platelet aggregation,18.3%
C=Cc1ccc(C(=O)c2ccccc2)cc1 [compound 82],Blood platelet agg. inh. (percentage inhibition of platelet aggregation),platelet aggregation,20.5%
Cc1ccc(C(=O)c2ccc(C)cc2)cc1 [compound 83],Blood platelet agg. inh. (percentage inhibition of platelet aggregation),platelet aggregation,27.6%
Cc1ccc(C(=O)c2c(C)cc(C)cc2C)cc1 [compound 86],Blood platelet agg. inh. (percentage inhibition of platelet aggregation),platelet aggregation,28.3%
CCCc1ccc(C(=O)c2cccc(C)c2)cc1 [compound 87],Blood platelet agg. inh. (percentage inhibition of platelet aggregation),platelet aggregation,30.1%
CCCCc1ccc(C(=O)c2cccc(C)c2)cc1 [compound 88],Blood platelet agg. inh. (percentage inhibition of platelet aggregation),platelet aggregation,24.5%
CCCc1ccc(C(=O)c2ccc(OC)cc2)cc1 [compound 93],Blood platelet agg. inh. (percentage inhibition of platelet aggregation),platelet aggregation,24.4%
CCCCOc1ccc(C(=O)c2ccc(CCCC)cc2)cc1 [compound 95],Blood platelet agg. inh. (percentage inhibition of platelet aggregation),platelet aggregation,30.0%
CCCc1ccc(C(=O)c2ccc(C)cc2C)cc1 [compound 96],Blood platelet agg. inh. (percentage inhibition of platelet aggregation),platelet aggregation,28.5%
CCCc1ccc(C(=O)c2c(C)cc(C)cc2C)cc1 [compound 97],Blood platelet agg. inh. (percentage inhibition of platelet aggregation),platelet aggregation,26.8%
CCCCCCCc1ccc(C(=O)c2ccc(CCCC)cc2)cc1 [compound 100],Blood platelet agg. inh. (percentage inhibition of platelet aggregation),platelet aggregation,22.4%
CCCCCCCCc1ccc(C(=O)c2ccc(CCCC)cc2)cc1 [compound 101],Blood platelet agg. inh. (percentage inhibition of platelet aggregation),platelet aggregation,27.9%
CCCCCCCCCc1ccc(C(=O)c2ccc(CCCC)cc2)cc1 [compound 102],Blood platelet agg. inh. (percentage inhibition of platelet aggregation),platelet aggregation,30.4%
Cc1cc(C)c(C(=O)c2ccc(O)cc2)c(C)c1 [compound 108],Blood platelet agg. inh. (percentage inhibition of platelet aggregation),platelet aggregation,28.4%
O=C(c1ccccc1)c1ccc(O)cc1 [compound 109],Blood platelet agg. inh. (percentage inhibition of platelet aggregation),platelet aggregation,13.7%
CCCc1ccc(C(=O)c2ccc(CCC)cc2)cc1 [compound 110],Blood platelet agg. inh. (percentage inhibition of platelet aggregation),platelet aggregation,20.5%
CCCCCc1ccc(C(=O)c2ccc(CCCCC)cc2)cc1 [compound 111],Blood platelet agg. inh. (percentage inhibition of platelet aggregation),platelet aggregation,10.3%
CCCc1ccc(C(=O)c2ccc(CC)cc2)cc1 [compound 112],Blood platelet agg. inh. (percentage inhibition of platelet aggregation),platelet aggregation,11.8%
O=C(c1ccc(F)cc1)c1ccccc1Cl [compound 115],Blood platelet agg. inh. (percentage inhibition of platelet aggregation),platelet aggregation,25.4%
COc1ccc(C(=O)c2ccccc2F)cc1 [compound 116],LD50 at 72 h,in vivo,4000 mg/kg
CC(C)c1ccc(C(=O)c2ccccc2F)cc1 [compound 117],LD50 at 72 h,in vivo,1500 mg/kg
CC(C)Cc1ccc(C(=O)c2ccccc2F)cc1 [compound 118],LD50 at 72 h,in vivo,2000 mg/kg
CCC(C)c1ccc(C(=O)c2ccccc2F)cc1 (stereo not shown) [compound 119],LD50 at 72 h,in vivo,2000 mg/kg
CC(C)(C)c1ccc(C(=O)c2ccccc2F)cc1 [compound 120],LD50 at 72 h,in vivo,750 mg/kg
CCC(C)(C)c1ccc(C(=O)c2ccccc2F)cc1 [compound 122],LD50 at 72 h,in vivo,2000 mg/kg
CCCCc1ccc(C(=O)c2cccc(F)c2)cc1 [compound 123],LD50 at 72 h,in vivo,1500 mg/kg
CCCCCc1ccc(C(=O)c2cccc(F)c2)cc1 [compound 124],LD50 at 72 h,in vivo,3000 mg/kg
Cc1cc(C)c(C(=O)c2cccc(F)c2)c(C)c1 [compound 125],LD50 at 72 h,in vivo,1000 mg/kg
Cc1ccc(C(=O)c2cccc(F)c2)c(C)c1 [compound 126],LD50 at 72 h,in vivo,1000 mg/kg
CCCCc1ccc(C(=O)c2ccc(F)cc2)cc1 [compound 127],LD50 at 72 h,in vivo,5000 mg/kg
CCCCCc1ccc(C(=O)c2ccc(F)cc2)cc1 [compound 128],LD50 at 72 h,in vivo,4000 mg/kg
CCCCCCCCc1ccc(C(=O)c2ccc(F)cc2)cc1 [compound 129],LD50 at 72 h,in vivo,> 10000 mg/kg
Cc1ccc(C(=O)c2ccc(F)cc2)c(C)c1 [compound 130],LD50 at 72 h,in vivo,2000 mg/kg
Cc1cc(C)c(C(=O)c2ccc(F)cc2)c(C)c1 [compound 131],LD50 at 72 h,in vivo,2000 mg/kg
CCCc1ccc(C(=O)c2ccccc2Cl)cc1 [compound 132],LD50 at 72 h,in vivo,2000 mg/kg
CCCCCc1ccc(C(=O)c2ccccc2Cl)cc1 [compound 133],LD50 at 72 h,in vivo,2000 mg/kg
CCCCCCCCc1ccc(C(=O)c2ccccc2Cl)cc1 [compound 134],LD50 at 72 h,in vivo,3000 mg/kg
Cc1ccc(C(=O)c2ccccc2Cl)c(C)c1 [compound 135],LD50 at 72 h,in vivo,1000 mg/kg
COc1ccc(C(=O)c2ccc(Cl)cc2)cc1 [compound 136],LD50 at 72 h,in vivo,2000 mg/kg
CCCCOc1ccc(C(=O)c2ccc(Cl)cc2)cc1 [compound 137],LD50 at 72 h,in vivo,2000 mg/kg
CCCCCCOc1ccc(C(=O)c2ccc(Cl)cc2)cc1 [compound 138],LD50 at 72 h,in vivo,2500 mg/kg
CCCc1ccc(C(=O)c2cccc(Cl)c2)cc1 [compound 139],LD50 at 72 h,in vivo,1000 mg/kg
CCCCCc1ccc(C(=O)c2cccc(Cl)c2)cc1 [compound 140],LD50 at 72 h,in vivo,1000 mg/kg
CCCCCCCCc1ccc(C(=O)c2cccc(Cl)c2)cc1 [compound 141],LD50 at 72 h,in vivo,2000 mg/kg
CCCc1ccc(C(=O)c2ccccc2Br)cc1 [compound 142],LD50 at 72 h,in vivo,1500 mg/kg
CCCCc1ccc(C(=O)c2ccccc2Br)cc1 [compound 143],LD50 at 72 h,in vivo,1500 mg/kg
CCCCCc1ccc(C(=O)c2ccccc2Br)cc1 [compound 144],LD50 at 72 h,in vivo,1500 mg/kg
CCCCCCCCc1ccc(C(=O)c2ccccc2Br)cc1 [compound 145],LD50 at 72 h,in vivo,2000 mg/kg
Cc1ccc(C(=O)c2ccccc2Br)c(C)c1 [compound 146],LD50 at 72 h,in vivo,1000 mg/kg
Cc1cc(C)c(C(=O)c2ccccc2Br)c(C)c1 [compound 147],LD50 at 72 h,in vivo,1000 mg/kg
CCCCCCCCc1ccc(C(=O)c2cccc(Br)c2)cc1 [compound 148],LD50 at 72 h,in vivo,2000 mg/kg
Cc1ccc(C(=O)c2cccc(Br)c2)c(C)c1 [compound 149],LD50 at 72 h,in vivo,500 mg/kg
CCCc1ccc(C(=O)c2ccc(Br)cc2)cc1 [compound 150],LD50 at 72 h,in vivo,2000 mg/kg
CCCCCCCCc1ccc(C(=O)c2ccc(Br)cc2)cc1 [compound 151],LD50 at 72 h,in vivo,2500 mg/kg
Cc1ccc(C(=O)c2ccc(Br)cc2)c(C)c1 [compound 152],LD50 at 72 h,in vivo,1500 mg/kg
Cc1cc(C)c(C(=O)c2ccc(Br)cc2)c(C)c1 [compound 153],LD50 at 72 h,in vivo,1500 mg/kg
CCCc1ccc(C(=O)c2ccccc2I)cc1 [compound 154],LD50 at 72 h,in vivo,> 10000 mg/kg
CCCCc1ccc(C(=O)c2ccccc2I)cc1 [compound 155],LD50 at 72 h,in vivo,> 10000 mg/kg
CCCCCc1ccc(C(=O)c2ccccc2I)cc1 [compound 156],LD50 at 72 h,in vivo,> 10000 mg/kg
CCCCCCCCc1ccc(C(=O)c2ccccc2I)cc1 [compound 157],LD50 at 72 h,in vivo,> 10000 mg/kg
Cc1ccc(C(=O)c2ccccc2I)c(C)c1 [compound 158],LD50 at 72 h,in vivo,2000 mg/kg
Cc1cc(C)c(C(=O)c2ccccc2I)c(C)c1 [compound 159],LD50 at 72 h,in vivo,1000 mg/kg
CCCCc1ccc(C(=O)c2cccc(I)c2)cc1 [compound 160],LD50 at 72 h,in vivo,2500 mg/kg
Cc1ccc(C(=O)c2cccc(I)c2)c(C)c1 [compound 162],LD50 at 72 h,in vivo,1500 mg/kg
Cc1cc(C)c(C(=O)c2cccc(I)c2)c(C)c1 [compound 163],LD50 at 72 h,in vivo,1500 mg/kg
CCCCCCCCc1ccc(C(=O)c2ccc(I)cc2)cc1 [compound 164],LD50 at 72 h,in vivo,> 10000 mg/kg
Cc1ccc(C(=O)c2ccc(I)cc2)c(C)c1 [compound 165],LD50 at 72 h,in vivo,5000 mg/kg
Cc1cc(C)c(C(=O)c2ccc(I)cc2)c(C)c1 [compound 166],LD50 at 72 h,in vivo,5000 mg/kg

# — US4124726A, “Anti-inflammatory agent of benzoyl derivative” (priority 1976, dated 1978)
